Assay results from US12617831B2 (UNIVERSITE D'ANGERS, priority 2019, dated 2026).
Ends that are not written are not given here.

How the values were obtained:
[1] = system: MC3T3-E1 subclone 4 cells; type: cell-based, murine; conditions: for Interpretation of combination index on collagen maturity at EC50: 69 pM; for Interpretation of combination index on collagen maturity at EC50 / Interpretation of combination index on collagen maturity at […] EC50: t-test vs additivity 1.0±0.15; for Interpretation of combination index on collagen maturity at […] EC50: 100 pM; for Emax for dose-effect curves on collagen maturity: MC3T3-E1, day 14; for effect on collagen maturity index: MC3T3-E1, vs cultures without peptide (FIG. 20); for Cl at […] EC50 (combination index on collagen maturity): at […] mean EC50 of GIP and GLP-2, 100 pM; for Cl at […] EC50 (combination index on collagen maturity) / Cl at EC50 (combination index on collagen maturity): Chou & Talalay, mean ± SD; for Cl at EC50 (combination index on collagen maturity): at mean EC50 of GIP and GLP-2, 69 pM
Description: Briefly, MC3T3-E1 subclone 4 cells have been grown and propagated in α-MEM supplemented with 5% fetal bovine serum (FBS), 5% bovine calf serum (BCS), 100 U/mL penicillin, and 100 μg/mL streptomycin in a humidified atmosphere enriched with 5% CO2 at 37° C. […] This day was considered as day 1. The differentiation medium was replenished every two days. […] Cultures were rinsed at least six times with milliQ water, fixed in absolute ethanol, scrapped off the culture dish and transferred onto BaF2 windows where they were air-dried. Integrity of the collagen extracellular matrix was verified by comparing the obtained Fourier transform infrared spectrum with those of commercial collagen. Spectral analysis was performed using a Bruker Vertex 70 spectrometer (Bruker optics, Ettlingen, Germany) interfaced with a Bruker Hyperion 3000 infrared microscope equipped with a standard single element Mercury Cadmium Telluride (MCT) detector. Calibration of the infrared spectrometer is done once a week with a polystyrene film standard (Bruker optics). Infrared spectra were recorded at a resolution of 4 cm^-1, with an average of 32 scans in transmission mode. Background spectral images were collected under identical conditions from the same BaF2 windows at the beginning and end of each experiment to ensure instrument stability. At least 5 spectra were acquired for each condition and analyzed with a lab-made routine script (version 2.0) in Matlab R2016b (The Mathworks, Natick, MA). […] For GIP and GLP-2 dataset, the inventors used the collagen maturity data previously acquired and analyzed. First of all, collagen maturity obtained in control cultures, i.e. in the absence of double GIP/GLP-2 analogues, were averaged and subtracted to the all dataset. […] For each concentration of peptide, the mean, SD and number of events were computed. […] The GraphPad Prism analysis consisted in: […] Statistical Analysis […] Data are represented as mean±SD.

[2] = system: Murine Raw 264.7 cells; type: cell-based; conditions: for IC50 computed from curve fitting of osteoclastogenesis vs. peptide concentration: Raw 264.7, RANKL 10 ng/ml, 110 h, * values determined from previous experiments; for Emax, maximum inhibitory effect on osteoclastogenesis: Raw 264.7, * data obtained in previous experiments; for Cl at EC50 of GIP and GLP-2 (combination index for osteoclastogenesis): at 36.8 pM, Chou & Talalay; for Interpretation of combination index for osteoclastogenesis: at EC50 of GIP and GLP-2, 36.8 pM
Description: Murine Raw 264.7 cells were grown and expanded in propagation medium containing Dulbecco's modified Eagle medium (DMEM-Gibco) supplemented with 10% fetal bovine serum (FBS-Lonza), 100 U/mL penicillin and 100 μg/mL streptomycin (Gibco) in a humidified atmosphere enriched with 5% CO2 at 37° C. The first passage after thawing Raw 264.7 cells was considered as passage 1. Cells were used up to passage 8. […] Cultures were rinsed three times in distilled water and the residual activity was inhibited by 4% NaF (Sigma-Aldrich) for 30 min. Cells were then rinsed in distilled water and allowed to dry. TRAcP positive cells, with more than three nuclei, were identified as osteoclasts. The number of newly generated osteoclasts was assessed using light microscopic examination by a histologist that was blinded to the treatment intervention. […] For each concentration of peptide, the mean, SD and number of events were computed.

Molecule	EC50 [1]	Interpretation of combination index on collagen maturity at EC50 [1]	Interpretation of combination index on collagen maturity at […] EC50 [1]	Emax for dose-effect curves on collagen maturity [1]	effect on collagen maturity index [1]	Cl at […] EC50 (combination index on collagen maturity) [1]	Cl at EC50 (combination index on collagen maturity) [1]	EC50 [2]	IC50 computed from curve fitting of osteoclastogenesis vs. peptide concentration [2]	Emax, maximum inhibitory effect on osteoclastogenesis [2]	Cl at EC50 of GIP and GLP-2 (combination index for osteoclastogenesis) [2]	Interpretation of combination index for osteoclastogenesis [2]
HAEGTFISDYSIAMDKLAARDFINWLIQTKITD-NH2 (C-terminus assumed) [Co-7]	0.0086 ± 0.0069 nM	Additive (CI 0.85-1.15: additive)	Antagonism (CI 1.45-3.3: antagonism)	115.6%	very modest	2.30 ± 1.01	1.53 ± 1.10	1.48 nM	1.48 nM	58.05%	271.28	Very strong antagonism (CI>10: very strong antagonism)
CC[C@H](C)[C@H](NC(=O)[C@H](Cc1ccccc1)NC(=O)[C@H](CC(=O)O)NC(=O)[C@H](CCCNC(=N)N)NC(=O)[C@H](C)NC(=O)[C@H](C)NC(=O)[C@H](CC(C)C)NC(=O)[C@H](CC(N)=O)NC(=O)[C@H](CC(=O)O)NC(=O)[C@H](CC(C)C)NC(=O)[C@@H](NC(=O)[C@@H](NC(=O)[C@H](CO)NC(=O)[C@H](Cc1ccc(O)cc1)NC(=O)[C@H](CC(=O)O)NC(=O)[C@H](CO)NC(=O)[C@@H](NC(=O)[C@H](Cc1ccccc1)NC(=O)[C@@H](NC(=O)CNC(=O)[C@H](CC(=O)O)NC(=O)[C@H](C)NC(=O)[C@@H](N)Cc1c[nH]cn1)[C@@H](C)O)[C@@H](C)CC)[C@@H](C)O)[C@@H](C)CC)C(=O)N[C@@H](CC(N)=O)C(=O)N[C@@H](Cc1c[nH]c2ccccc12)C(=O)N[C@@H](CC(C)C)C(=O)N[C@H](C(=O)N[C@@H](CCC(N)=O)C(=O)N[C@H](C(=O)N[C@@H](CCCCN)C(=O)NCC(=O)N[C@@H](CCCCN)C(=O)N[C@@H](CCCCN)C(N)=O)[C@@H](C)O)[C@@H](C)CC [Co-19]	0.0229 nM	Additive (CI 0.85-1.15: additive)	Additive (CI 0.85-1.15: additive)	118.1%	very modest	389.0 ± 864	277.7 ± 617.4	0.0324 nM	0.0324 nM	62.36%	1.94	Antagonism (CI 1.45-3.3: antagonism)
